Experimental data taken from patent US4087450A, “(Polychlorophenoxy) methyl esters of thiocyanic acid” (priority 1977, dated 1978).
Values after ≈ are worked out from the molar mass of the structure shown.

Experiments:
[1] = tested on: Trichophyton mentagrophytes; assay: conventional agar dilution test, 100% growth inhibition; assay type: cell-based; settings: read-out: Concentration for 100% Growth Inhibition
From the text: (§1) In representative operations, the compounds of the present invention when tested for their activity as antimicrobials using conventional agar dilution tests give complete growth inhibition against C. albicans, T. mentagrophytes, C. pelliculosa, R. nigricans, C. ips, C. fragans and Trichoderma sp. 42. The following Table provides test data summaries in comparison with the activity of art compounds.

[2] = tested on: Rhizopus nigricans; assay: as above; assay type: cell-based; settings: Rhizopus stolonifer, read-out: Concentration for 100% Growth Inhibition
From the text: as §1

[3] = tested on: Ceratocystis ips; assay: as above; assay type: cell-based; settings: read-out: Concentration for 100% Growth Inhibition
From the text: as §1

[4] = tested on: Trichoderma species 42; assay: as above; assay type: cell-based; settings: Trichoderma species 42, agar dilution; read-out: Concentration for 100% Growth Inhibition
From the text: as §1

[5] = tested on: Candida pelliculosa; assay: as above; assay type: cell-based; settings: Hansenula anomala, read-out: Concentration for 100% Growth Inhibition
From the text: as §1

[6] = tested on: Candida albicans; assay: as above; assay type: cell-based; settings: read-out: Concentration for 100% Growth Inhibition
From the text: as §1

[7] = tested on: Pullularia pullulans; assay: as above; assay type: cell-based; settings: read-out: Concentration for 100% Growth Inhibition
From the text: as §1

[8] = water-leachability determination, retention on glass fiber paper; assay type: physicochemical; settings: leached 8 hours, 20° C. water at 10 ml./sec., average of duplicate determinations
Method: (§2) To determine volatility and water solubility of the compounds, the following procedure was used: A 0.1 g. portion of each compound was dissolved in 2.0 ml. acetone. One-half of this solution was placed on a dry, pre-weighed, 7 cm. diameter sheet of glass fiber paper (Reeve Angel #934AH). The fiber paper was allowed to air dry for 24 hours and was re-weighed to determine the amount (0.05 g.) of the compound present. The other half of the solution was used to impregnate similarly another sheet of glass fiber paper. For the volatility determination, one of the papers was placed in a 50° C. oven for 7 days, removed, air cooled for 24 hours, and weighed. The percent retention given in Table II was calculated by the following formula: [formula]
For the water-leachability determination, the second impregnated paper was leached for 8 hours with 20° C. water running at 10 ml./sec. The fiber paper was allowed to air dry for 24 hours, then re-weighed. The percent retention was also calculated by the above formula. The figures recorded in following Table II represent the average of duplicate determinations.

[9] = volatility determination, retention on glass fiber paper; assay type: physicochemical; settings: 50° C. oven for 7 days, average of duplicate determinations
Method: as §2

[10] = tested on: important fungi; assay: fungicidal activity against important fungi; settings: in words
[11] = tested on: Tunicates; assay: marine antifoulant activity, fouling of test panels; settings: Compound I 0.14 g. in panel, TBTO 0.13 g. in panel, seawater
Method: (§3) The compounds of this invention also repel or are toxic towards lower forms of marine life such as barnacles, and thereby function effectively as marine antifoulants. In evaluating marine antifoulant activity, a comparison of compound (I) vs. a standard antifouling toxicant, bis(tri-n-butyltin) oxide (TBTO), was carried out by treating pre-weighed 21/2 inch by 21/2 inch by 1/4 inch porous silica test panels with a solution of the individual compound in methyl isobutyl ketone, allowing the solvent to air dry to constant weight, and then immersing the panels in seawater at a subtropical location which has dense populations of fouling organisms. Under these conditions, an untreated panel became completely fouled after two months' exposure.

[12] = tested on: Tube Worms; assay: as above; settings: Compound I 0.14 g. in panel, TBTO 0.13 g. in panel, seawater
Method: as §3

[13] = tested on: Hydroids; assay: as above; settings: Compound I 0.14 g. in panel, TBTO 0.13 g. in panel, seawater
Method: as §3

[14] = tested on: Barnacles; assay: as above; settings: Compound I 0.14 g. in panel, TBTO 0.13 g. in panel, seawater
Method: as §3

[15] = tested on: Algae; assay: as above; settings: Compound I 0.14 g. in panel, TBTO 0.13 g. in panel, seawater
Method: as §3

[16] = tested on: Microfouling; assay: as above; settings: Compound I 0.14 g. in panel, TBTO 0.13 g. in panel, seawater
Method: as §3

[17] = tested on: Encrusting Bryozoans; assay: as above; settings: Compound I 0.14 g. in panel, TBTO 0.13 g. in panel, seawater
Method: as §3

[18] = tested on: Oysters; assay: as above; settings: Compound I 0.14 g. in panel, TBTO 0.13 g. in panel, seawater
Method: as §3

[19] = tested on: Algae Spores; assay: as above; settings: Compound I 0.14 g. in panel, TBTO 0.13 g. in panel, seawater
Method: as §3

[20] = tested on: mold growth; assay: outdoor exposure test, preservation of alkyd paint (modified ASTM D-1006); set-up: key to mold growth rating, 8 Mo. / mold growth rating, 4 Mo. / mold growth rating, 5 Mo.: 1: No mold growth; 2: Trace, <5% growth; 3: Trace, 5-10% growth; 4: 10-25% growth; 25-50% growth; 6: 50-70% growth; 70-90% growth; 8: 90-95% growth; 9: 100% growth; 100% growth, severe; settings: for mold growth rating, 4 Mo.: 4 months outdoor; for mold growth rating, 5 Mo.: 5 months outdoor; for mold growth rating, 8 Mo.: 8 months outdoor; for mold growth rating, 10 Mo.: 10 months outdoor
From the text: (§4) Using a modification of ASTM D-1006, clear sapwood ponderosa pine boards 1/2 inch × 6 inches × 36 inches were primed with an unpreserved alkyd coating. A single coat of paint (alkyd or acrylic latex) incorporating compound (I) was brush applied. The boards were then exposed to the elements at Lake Jackson, Texas, and periodically readings were taken using the following rating scale: […]

[21] = tested on: mold growth; assay: outdoor exposure test, preservation of acrylic latex paint (modified ASTM D-1006); set-up: key to mold growth rating, 4 Mo. / mold growth rating, 5 Mo. / mold growth rating, 8 Mo.: 1: No mold growth; 2: Trace, <5% growth; 3: Trace, 5-10% growth; 4: 10-25% growth; 25-50% growth; 6: 50-70% growth; 70-90% growth; 8: 90-95% growth; 9: 100% growth; 100% growth, severe; settings: for mold growth rating, 4 Mo.: 4 months outdoor; for mold growth rating, 5 Mo.: 5 months outdoor; for mold growth rating, 8 Mo.: 8 months outdoor; for mold growth rating, 10 Mo.: 10 months outdoor
From the text: as §4

Work on N#CSCOc1ccc(Cl)cc1Cl [Compound V] yielded an MIC [1] of 1 mg/L (≈ 4.27 µM), an MIC [2] of 10 mg/L (≈ 42.7 µM) and an MIC [3] of 10 mg/L (≈ 42.7 µM). For the same compound, the MIC [4] was 10 mg/L (≈ 42.7 µM), the MIC [5] was 10 mg/L (≈ 42.7 µM) and the MIC [6] was 100 mg/L (≈ 427 µM). For the same compound, the MIC [7] was 10 mg/L (≈ 42.7 µM), the “Percent Retention, Water Extraction” value [8] was 52% and the “Percent Retention, Volatility” value [9] was 6%.
In the case of Cc1cc(OCSC#N)ccc1Cl [IV], the MIC [1] is reported as 100 mg/L (≈ 468 µM), the MIC [2] is reported as 500 mg/L (≈ 2340 µM) and the MIC [3] is reported as 500 mg/L (≈ 2340 µM). It also gave an MIC [4] of 100 mg/L (≈ 468 µM), an MIC [5] of 500 mg/L (≈ 2340 µM) and an MIC [6] of 500 mg/L (≈ 2340 µM). The MIC [7] was 500 mg/L (≈ 2340 µM), the “Percent Retention, Water Extraction” value [8] was 71% and the “Percent Retention, Volatility” value [9] was 12%.
In the case of N#CSCOc1c(Cl)c(Cl)c(Cl)c(Cl)c1Cl [pentachloro-(thiocyanatomethoxy)- benzene], the “fungicidal activity against important fungi, relative to the compounds of this invention” value [10] is reported as “a small fraction of that of the compounds herein claimed”.
For CCC[CH2][Sn]([CH2]CCC)([CH2]CCC)[O][Sn]([CH2]CCC)([CH2]CCC)[CH2]CCC [TBTO, bis(tri-n-butyltin) oxide, reference compound], the “Percent Fouling of Test Panels” value [11] was 0%, the “Percent Fouling of Test Panels” value [12] was 0% and the “Percent Fouling of Test Panels” value [13] was 0%. The “Percent Fouling of Test Panels” value [14] was 0%, the “Percent Fouling of Test Panels” value [15] was 0% and the “Percent Fouling of Test Panels” value [16] was 0%. The “Percent Fouling of Test Panels” value [17] was 0%, the “Percent Fouling of Test Panels” value [18] was 0% and the “Percent Fouling of Test Panels” value [19] was 20%.
For N#CSCOc1cc(Cl)c(Cl)cc1Cl [Compound I, Thiocyanic Acid, (2,4,5-Trichlorophenoxy)Methyl Ester], the “mold growth rating, 4 Mo.” value ([20]; 0.4 wt. % (I)) was 9 (100% growth), the “mold growth rating, 5 Mo.” value ([20]; 0.4 wt. % (I)) was 9 (100% growth) and the “mold growth rating, 8 Mo.” value ([20]; 0.4 wt. % (I)) was 1. The “mold growth rating, 10 Mo.” value ([20]; 0.4 wt. % (I)) was 2 (Trace, <5% growth), the “mold growth rating, 4 Mo.” value ([20]; 0.6 wt. % (I)) was 8 (90-95% growth) and the “mold growth rating, 5 Mo.” value ([20]; 0.6 wt. % (I)) was 9 (100% growth). For the same compound, the “mold growth rating, 8 Mo.” value ([20]; 0.6 wt. % (I)) was 1, the “mold growth rating, 10 Mo.” value ([20]; 0.6 wt. % (I)) was 2 (Trace, <5% growth) and the “mold growth rating, 4 Mo.” value ([20]; 0.8 wt. % (I)) was 4 (10-25% growth). The “mold growth rating, 5 Mo.” value ([20]; 0.8 wt. % (I)) was 3 (Trace, 5-10% growth), the “mold growth rating, 8 Mo.” value ([20]; 0.8 wt. % (I)) was 1 and the “mold growth rating, 10 Mo.” value ([20]; 0.8 wt. % (I)) was 2 (Trace, <5% growth). For the same compound, the “mold growth rating, 4 Mo.” value ([20]; 1.0 wt. % (I)) was 1, the “mold growth rating, 5 Mo.” value ([20]; 1.0 wt. % (I)) was 1 and the “mold growth rating, 8 Mo.” value ([20]; 1.0 wt. % (I)) was 1. For the same compound, the “mold growth rating, 10 Mo.” value ([20]; 1.0 wt. % (I)) was 2 (Trace, <5% growth), the “Percent Fouling of Test Panels” value [11] was 0% and the “Percent Fouling of Test Panels” value [12] was 0%. For the same compound, the “Percent Fouling of Test Panels” value [13] was 0%, the “Percent Fouling of Test Panels” value [14] was 0% and the “Percent Fouling of Test Panels” value [15] was 0%. The “Percent Fouling of Test Panels” value [16] was 0%, the “Percent Fouling of Test Panels” value [17] was 0% and the “Percent Fouling of Test Panels” value [18] was 0%. The “Percent Fouling of Test Panels” value [19] was 30%, the MIC [1] was 0.1 mg/L (≈ 0.372 µM) and the MIC [2] was 10 mg/L (≈ 37.2 µM). The MIC [3] was 1 mg/L (≈ 3.72 µM), the MIC [4] was 10 mg/L (≈ 37.2 µM) and the MIC [5] was 10 mg/L (≈ 37.2 µM). The MIC [6] was 10 mg/L (≈ 37.2 µM), the MIC [7] was 10 mg/L (≈ 37.2 µM) and the “Percent Retention, Water Extraction” value [8] was 92%. The “Percent Retention, Volatility” value [9] was 74%, the “mold growth rating, 4 Mo.” value ([21]; 0.5 wt. % (I)) was 1 and the “mold growth rating, 5 Mo.” value ([21]; 0.5 wt. % (I)) was 1. For the same compound, the “mold growth rating, 8 Mo.” value ([21]; 0.5 wt. % (I)) was 1, the “mold growth rating, 10 Mo.” value ([21]; 0.5 wt. % (I)) was 2 (Trace, <5% growth) and the “mold growth rating, 4 Mo.” value ([21]; 1.0 wt. % (I)) was 1. The “mold growth rating, 5 Mo.” value ([21]; 1.0 wt. % (I)) was 1, the “mold growth rating, 8 Mo.” value ([21]; 1.0 wt. % (I)) was 1 and the “mold growth rating, 10 Mo.” value ([21]; 1.0 wt. % (I)) was 2 (Trace, <5% growth).
Work on N#CSCOc1c(Cl)cc(Cl)c(Cl)c1Cl [II, Thiocyanic Acid, (2,3,4,6-Tetrachlorophenoxy)Methyl Ester] yielded an MIC [1] of 1 mg/L (≈ 3.3 µM), an MIC [2] of 100 mg/L (≈ 330 µM) and an MIC [3] of 1 mg/L (≈ 3.3 µM). It also gave an MIC [4] of 1 mg/L (≈ 3.3 µM), an MIC [5] of 10 mg/L (≈ 33 µM) and an MIC [6] of 10 mg/L (≈ 33 µM). The MIC [7] was 1 mg/L (≈ 3.3 µM), the “Percent Retention, Water Extraction” value [8] was 96% and the “Percent Retention, Volatility” value [9] was 49%.
For N#CSCOc1ccc(Cl)cc1 [III], the MIC [1] was 100 mg/L (≈ 501 µM), the MIC [2] was 500 mg/L (≈ 2500 µM) and the MIC [3] was 500 mg/L (≈ 2500 µM). It also gave an MIC [4] of 100 mg/L (≈ 501 µM), an MIC [5] of 500 mg/L (≈ 2500 µM) and an MIC [6] of 500 mg/L (≈ 2500 µM). For the same compound, the MIC [7] was 500 mg/L (≈ 2500 µM), the “Percent Retention, Water Extraction” value [8] was 80% and the “Percent Retention, Volatility” value [9] was 2%.
With N#CSCOc1c(Cl)c(Cl)c(Cl)c(Cl)c1Cl [VI] the MIC [1] was 100 mg/L (≈ 296 µM), the MIC [2] was > 500 mg/L and the MIC [3] was > 500 mg/L. For the same compound, the MIC [4] was > 500 mg/L, the MIC [5] was > 500 mg/L and the MIC [6] was > 500 mg/L. The MIC [7] was > 500 mg/L, the “Percent Retention, Water Extraction” value [8] was 98% and the “Percent Retention, Volatility” value [9] was 97%.
